Measurements from US20080167330A1, “Carbamoylsulphoximides as protein kinase inhibitors” (priority 2006, published 2008).
pIC50: −log10 of the molar value.

biological target: T1, human Aurora-C (Homo sapiens, UniProt Q9UQB9); assay: Aurora-C kinase assay (HTRF); type: biochemical; settings: 10 μM ATP
T1 construct: GST; made in house; host or cells: transiently transfected HEK293 cells
T1 sequence (Q9UQB9 1-309): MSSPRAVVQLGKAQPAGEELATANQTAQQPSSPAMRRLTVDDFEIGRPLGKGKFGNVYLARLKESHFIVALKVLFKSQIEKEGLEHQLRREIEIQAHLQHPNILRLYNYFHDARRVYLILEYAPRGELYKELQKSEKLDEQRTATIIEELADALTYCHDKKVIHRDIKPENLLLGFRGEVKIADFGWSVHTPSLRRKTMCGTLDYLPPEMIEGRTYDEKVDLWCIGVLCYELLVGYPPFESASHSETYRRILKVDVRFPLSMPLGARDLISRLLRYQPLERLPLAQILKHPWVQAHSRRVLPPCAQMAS
Procedure: The Aurora-C inhibitory activity of the substances of this invention was measured in the Aurora-C-HTRF assay (HTRF=Homogeneous Time Resolved Fluorescence) described in the following paragraphs.
Recombinant fusion protein of GST and human Aurora-C was expressed in transiently transfected HEK293 cells and purified by affinity chromatography on glutathione-Sepharose. The substrate used for the kinase reaction was the biotinylated peptide biotin-Ttds-FMRLRRLSTKYRT (C terminus in amide form) which can be purchased for example from JERINI Peptide Technologies (Berlin). Aurora-C was incubated in the presence of various concentrations of test substances in 5 μL of assay buffer [25 mM Hepes/NaOH pH 7.4, 0.5 mM MnCl2, 2.0 mM dithiothreitol, 0.1 mM sodium orthovanadate, 10 μM adenosine triphosphate (ATP), […] substrate, 0.01% (v/v) TritonX-100 (Sigma), 0.05% (w/v) bovine serum albumin (BSA), 1% (v/v) dimethyl sulphoxide] at 22° C. for 60 min. The concentration of Aurora-C was adapted to the particular activity of the enzyme and adjusted so that the assay operated in the linear range. Typical concentrations were in the region of 0.3 nM. The reaction was stopped by adding 5 μl of a solution of HTRF detection reagents (0.2 μM streptavidin-XLent and 1.4 nM anti-phospho-(Ser/Thr)-Akt substrate-Eu-cryptate (Cis biointernational, France, product No. 61P02KAE), a Europium-cryptate-labelled phospho-(Ser/Thr)-Akt substrate antibody [product #9611B, Cell Signaling Technology, Danvers, Mass., USA]) in aqueous EDTA solution (40 mM EDTA, 400 mM KF, 0.05% (w/v) bovine serum albumin (BSA) in 25 mM HEPES/NaOH pH 7.0).
The resulting mixture was incubated at 22° C. for 1 h in order to allow formation of a complex of the biotinylated phosphorylated substrate and the detection reagents. The amount of phosphorylated substrate was then estimated by measuring the resonance energy transfer from the anti-phospho-(Ser/Thr)-Akt substrate-Eu cryptate to the streptavidin-XLent. For this purpose, the fluorescence emissions at 620 nm and 665 nm after excitation at 350 nm were measured in an HTRF measuring instrument, e.g. a Rubystar (BMG Labtechnologies, Offenburg, Germany) or a Viewlux (Perkin-Elmer). The ratio of the emissions at 665 nm and at 622 nm was taken as a measure of the amount of phosphorylated substrate. The data were normalized (enzymic reaction without inhibitor=0% inhibition, all other assay components but no enzyme=100% inhibition) and IC50 values were calculated with a 4-parameter fit using an inhouse software.

| SMILES | pIC50 |
| --- | --- |
| C[C@@H](Nc1nc(Nc2ccc(NC(=O)N=S(C)(C)=O)cc2)ncc1Br)C(C)(C)O [Example 2, N-({4-[(5-Bromo-4-{[(R)-2-hydroxy-1,2-dimethylpropyl]amino}pyrimidin-2-yl)-amino]phenyl}carbamoyl)-S,S-dimethylsulphoximide] | 6.40 |
| C[C@@H](O)[C@@H](C)Oc1nc(Nc2ccc(NC(=O)N=S(C)(C)=O)cc2)ncc1Br [Example 4, N-({4-[(5-Bromo-4-{[(1R,2R)-2-hydroxy-1-methylpropyl]oxy}pyrimidin-2-yl)amino]phenyl}carbamoyl)-S,S-dimethylsulphoximide] | 6.38 |
| Cc1ccc(Nc2ncc(Br)c(N[C@H](C)[C@@H](C)O)n2)cc1NC(=O)N=S(C)(C)=O [Example 8, N-({5-[(5-Bromo-4-{[(1R,2R)-2-hydroxy-1-methylpropyl]amino}pyrimidin-2-yl)amino]-2-methylphenyl}carbamoyl)-S,S-dimethylsulphoximide] | 6.09 |
| COc1ccc(Nc2ncc(Br)c(N[C@H](C)[C@@H](C)O)n2)cc1NC(=O)N=S(C)(C)=O [Example 10, N-({5-[(5-Bromo-4-{[(1R,2R)-2-hydroxy-1-methylpropyl]amino}pyrimidin-2-yl)amino]-2-methoxyphenyl}carbamoyl)-S,S-dimethylsulphoximide] | 6.39 |
| COc1cc(Nc2ncc(Br)c(N[C@H](C)[C@@H](C)O)n2)ccc1NC(=O)N=S(C)(C)=O [Example 11, N-({4-[(5-Bromo-4{[(1R,2R)-2-hydroxy-1-methylpropyl]amino}pyrimidin-2-yl)amino]-2-methoxyphenyl}carbamoyl)-S,S-dimethylsulphoximide] | 6.37 |
| C[C@@H](O)[C@@H](C)Nc1nc(Nc2ccc(Cl)c(NC(=O)N=S(C)(C)=O)c2)ncc1Br [Example 12, N-({5-[(5-Bromo-4-{[(1R,2R)-2-hydroxy-1-methylpropyl]amino}pyrimidin-2-yl)amino]-2-chlorophenyl}carbamoyl)-S,S-dimethylsulphoximide] | 5.89 |
| CS(C)(=O)=NC(=O)Nc1ccc(Nc2ncc(Br)c(Nc3ccc4[nH]cnc4c3)n2)cc1 [Example 16, N-[(4-{[4-(1H-Benzimidazol-5-ylamino)-5-bromopyrimidin-2-yl]amino}phenyl)-carbamoyl]-S,S-dimethylsulphoximide] | 6.40 |
| C[C@@H](O)[C@@H](C)Nc1nc(Nc2cccc(C(=O)N=S(C)(C)=O)c2)ncc1Br [Example 17, N-{3-[(5-Bromo-4-{[(1R,2R)-2-hydroxy-1-methylpropyl]amino}pyrimidin-2-yl)amino]benzoyl}-S,S-dimethylsulphoximide] | 5.70 |
| C[C@@H](Nc1nc(Nc2ccc(C(=O)N=S(C)(C)=O)cc2)ncc1Br)C(C)(C)O [Example 19, N-{4-[(5-Bromo-4-{[(R)-2-hydroxy-1,2-dimethylpropyl]amino}pyrimidin-2-yl)amino]benzoyl}S,S-dimethylsulphoximide] | 6.13 |

The next compounds have a higher pIC50 than those just listed; values first:

| pIC50 | SMILES |
| --- | --- |
| 6.43 | C[C@@H](O)[C@@H](C)Nc1nc(Nc2ccc(F)c(NC(=O)N=S(C)(C)=O)c2)ncc1Br [Example 7, N-({5-[(5-Bromo-4-{[(1R,2R)-2-hydroxy-1-methylpropyl]amino}pyrimidin-2-yl)amino]-2-fluorophenyl}carbamoyl)-S,S-dimethylsulphoximide] |
| 6.51 | C[C@@H](O)[C@@H](C)Oc1nc(Nc2ccc(C(=O)N=S(C)(C)=O)cc2)ncc1Br [Example 20, N-{4-[(5-Bromo-4-{[(1R,2R)-2-hydroxy-1-methylpropyl]oxy}pyrimidin-2-yl)amino]benzoyl}-S,S-dimethylsulphoximide] |
| 6.55 | C[C@@H](O)[C@@H](C)Nc1nc(Nc2ccc(NC(=O)N=S(C)(C)=O)cc2)ncc1Br [Example 3, N-({4-[(5-Bromo-4-{[(1R,2R)-2-hydroxy-1-methylpropyl]amino}pyrimidin-2-yl)amino]phenyl}carbamoyl)-S,S-dimethylsulphoximide] |
| 6.55 | C[C@@H](O)[C@@H](C)Nc1nc(Nc2ccc(C(=O)N=S(C)(C)=O)cc2)ncc1Br [Example 18, N-{4-[(5-Bromo-4-{[(1R,2R)-2-hydroxy-1-methylpropyl]amino}pyrimidin-2-yl)amino]benzoyl}-S,S-dimethylsulphoximide] |
| 6.80 | C[C@@H](Nc1nc(Nc2cccc(NC(=O)N=S(C)(C)=O)c2)ncc1Br)C(C)(C)O [Example 1, N-({3-[(5-Bromo-4-{[(R)-2-hydroxy-1,2-dimethylpropyl]amino}pyrimidin-2-yl)amino]phenyl}carbamoyl)-S,S-dimethylsulphoximide] |
| 6.82 | C[C@@H](O)[C@@H](C)Nc1nc(Nc2ccc(NC(=O)N=S(C)(C)=O)cc2)ncc1C(F)(F)F [Example 15] |
| 7.14 | C[C@@H](O)[C@@H](C)Oc1nc(Nc2cccc(NC(=O)N=S(C)(C)=O)c2)ncc1Br [Example 6, N-({3-[(5-Bromo-4-{[(1R,2R)-2-hydroxy-1-methylpropyl]oxy}pyrimidin-2-yl)amino]phenyl}carbamoyl)-S,S-dimethylsulphoximide] |
| 7.27 | C[C@@H](O)[C@@H](C)Nc1nc(Nc2cccc(NC(=O)N=S(C)(C)=O)c2)ncc1Br [Example 5, N-({3-[(5-Bromo-4-{[(1R,2R)-2-hydroxy-1-methylpropyl]amino}pyrimidin-2-yl)amino]phenyl}carbamoyl)-S,S-dimethylsulphoximide] |

system: Aurora C, CDK1/CycB, CDK2/CycE, KDR (VEGFR2); assay: various kinase assays taken together (selectivity profile); type: biochemical; settings: comparison across the kinase assays, in words
Procedure: The compounds of Examples 1 to 22 were tested for their inhibitory effect in the various kinase assays and in a proliferation assay with MCF7 human breast tumour cells (Tab. 1). […] Exemplary compounds 1-8, 10-12, 15, 17-20 inhibit the proliferation of human MCF7 breast tumour cells with half-maximum concentrations in the submicromolar range.

| selectivity profile | SMILES |
| --- | --- |
| CDK-selective | C[C@@H](O)[C@@H](C)Nc1nc(Nc2ccc(NC(=O)N=S(C)(C)=O)cc2)ncc1C(F)(F)F [Example 15] |
| preferential KDR inhibition | CS(C)(=O)=NC(=O)Nc1ccc(Nc2ncc(Br)c(Nc3ccc4[nH]cnc4c3)n2)cc1 [Example 16, N-[(4-{[4-(1H-Benzimidazol-5-ylamino)-5-bromopyrimidin-2-yl]amino}phenyl)-carbamoyl]-S,S-dimethylsulphoximide] |
| CDK-selective | C[C@@H](O)[C@@H](C)Nc1nc(Nc2cccc(C(=O)N=S(C)(C)=O)c2)ncc1Br [Example 17, N-{3-[(5-Bromo-4-{[(1R,2R)-2-hydroxy-1-methylpropyl]amino}pyrimidin-2-yl)amino]benzoyl}-S,S-dimethylsulphoximide] |
